Measured values taken from patent publication EP4610269A1, “UROKINASE PLASMINOGEN ACTIVATOR SURFACE RECEPTOR (UPAR) LIGANDS FOR DIAGNOSTIC OR THERAPEUTIC USE” (3B Pharmaceuticals GmbH, priority 2024, dated 2025).
Like-named read-outs stand apart in the source and are kept apart here. *1 amine or outer side, *2 acyl side, *3 side chain or, on linkers, in order; H or OH if unused. Where a SMILES comes first, the peptide text is derived from it. Bridges are numbered along the chain shown (N, C = ends). Side-chain parts run from the residue outwards. [ ]: non-standard residue; d: D form. The star is where a group is joined. X12 = N=c1ccc2c(-c3ccc(C(=O)NCCCOCCOCCOCCCN*)cc3C(=O)O)c3ccc(N)c(S(=O)(=O)O)c3oc-2c1S(=O)(=O)O; DOTA(Lu) = O=C1CN2CCN3CCN(CC(=O)*)CCN(CC2)CC(=O)[O][Lu]([O]1)[O]C(=O)C3; Pro(cis-4-F) = O=C(O)[C@@H]1C[C@H](F)CN1; Dopa = N[C@@H](Cc1ccc(O)c(O)c1)C(=O)O; Hyp = O=C(O)[C@@H]1C[C@@H](O)CN1; X10 = CC(C)C[C@@H](C(=O)*)N(C)C; Cit = NC(=O)NCCC[C@H](N)C(=O)O; Butoxycarbonyl = CCCCOC(=O)*; Phg = N[C@H](C(=O)O)c1ccccc1; Suc = O=C(CCC(=O)[*:2])[*:1]; Nva = CCC[C@H](N)C(=O)O; Pentanoyl = CCCCC(=O)*; Ahx = NCCCCCC(=O)O; Sar = CNCC(=O)O

Columns and labels:
human uPAR (uPAR-Fc) = target: T1, human uPAR (uPAR-Fc) (Homo sapiens, UniProt Q03405); experiment: Surface plasmon resonance (SPR) assay, single cycle kinetics; type: binding
T1 construct: comprising amino acids Leu23-Arg303 according to UniProt entry Q03405.1; purchased R&D Systems 10378-UK-100
Experimental: Surface plasmon resonance (SPR) is an optical technique used to measure molecular interactions in real time. SPR occur when plane-polarized light hits a metal film under total internal reflection conditions. SPR signal is directly dependent on the refractive index of the medium on the sensor chip. In an SPR experiment, one molecule (i.e. uPAR) is immobilized on a sensor chip and binding to a second molecule (i.e. test compounds) is measured under flow. The binding of the compound on the surface changes the refractive index. In responses the reflection angle changes as compounds bind and dissociate on the immobilized protein on the surface. This response is measured in resonance units (RU). The RUs are proportional to the number of molecules bound to the surface. […] Kinetic binding constants and equilibrium binding constants can be derived from the sensorgrams.
Surface plasmon resonance (SPR) studies were performed using a Biacore™ T200 or S200 SPR system (Cytiva, formerly GE Life Sciences) to assess binding of compounds to recombinant uPAR protein.
In this example recombinant protein comprising the extracellular domains of human uPAR (uPAR-Fc, R&D Systems, CAT 10378-UK-100, comprising amino acids Leu23-Arg303 according to UniProt entry Q03405.1 and Fc region of human IgG1 at the C-terminus) was immobilized on a Protein A-Chip (Cytiva, CAT 29127555) according to the supplier's instructions. uPAR-Fc was diluted in Running Buffer (10 mM HEPES, 150 mM NaCl, 50 µM EDTA, 0.1% DMSO, 0.05% Tween-20, pH 7.4) to a final concentration of 100 nM and then flushed over the Protein A-Chip to immobilized ~2000 RUs.
Stock solutions of test compounds were prepared by dissolving each compound in DMSO. DMSO stock solution were diluted 1: 1000 in Running Buffer without DMSO. Further sequential dilutions were made with Running Buffer containing 0.1% DMSO. SPR binding analyses were performed in Single Cycle Kinetic (SCK) mode at 25°C. Flow cell without immobilized uPAR-Fc served as reference flow cell. The chip was regenerated with 10 mM Glycine, pH 1,5 to remove the uPAR-Fc from the chip surface after each SCK run. After every three SCK measurements, a blank run with Running Buffer instead of test compound was included to correct for baseline drifts (double reference substraction method). Table 11: SPR protocol steps for SCK with uPAR-Fc immobilized on a Protein A-Chip.
For each test compound, SPR raw data sensorgrams were recorded using the Biacore™ T200 or S200 control software. Sensorgrams were processed and analyzed with the Biacore™ Insight Evaluation software. […] The reference subtracted sensorgram for each test compound was further corrected for baseline drift by subtracting the sensorgram of a reference subtracted blank run (Running Buffer only). The dissociation constant (KD) was calculated from the double reference subtracted sensorgrams using the 1:1 Langmuir binding model. The pKD value (negative decadic logarithm of dissociation constant) was calculated using Microsoft Excel.

[1] = target: T2, uPAR-expressing HEC-265 human endometrial adenocarcinoma cells (Homo sapiens, UniProt Q03405); experiment: Competitive FACS binding assay; details: pIC50 category of FACS binding
T2 construct: Cell surface uPAR-expressing HEC-265 human endometrial adenocarcinoma cells; host or cells: HEC-265
Experimental: In order to determine binding of compounds according to the present invention to uPAR-expressing cells, a competitive FACS binding assay was established.
Cell surface uPAR-expressing HEC-265 human endometrial adenocarcinoma cells (Japanese Collection of Research Bioresources, #JCRB1142) were cultured in MEM Eagle with stable glutamine (Pan Biotech, #P04-09500) including 15% fetal bovine serum (Pan Biotech, #P30-3306) and 100 U/ml penicillin and 100 µg/mL streptomycin (Pan Biotech, #P06-07100). Cells were detached with Cell Dissociation Buffer (Thermo Scientific, #13151014) and washed in FACS buffer (PBS (Pan Biotech, #P04-36500) including 1% BSA (SeraCare, #AP-4510-80). Cells were diluted in FACS buffer to a final concentration of 500.000 cells per ml and 200 µl of the cell suspension are transferred to a u-shaped non-binding 96-well plate (Greiner Bio-One, #650901).
For IC50 determination, cells were incubated with 10 nM Bio--Ttds--Ttds--Ttds--Ttds-D-Cha-FsrYLWS-NH2) in the presence of increasing concentrations of non-labeled test compounds at 4°C for 1 hour. Cells were washed twice in FACS buffer. An additional incubation step with 1 µg/mL APC-Streptavidin (Miltenyi; #130-106-791) in 50 µL FACS buffer for 30 minutes on ice was performed followed by two washes with FACS buffer. Cells were resuspended in 200 µl FACS buffer and analyzed in an Attune NxT flow cytometer. Median fluorescence intensities (APC channel) were calculated by Attune NxT software and plotted against peptide concentrations. Four parameter logistic (4PL) curve fitting and pIC50 calculations were performed using ActivityBase software.

[2] = pKD category for uPAR SPR activity assay, uPAR-Fc on Protein A-Chip, single cycle kinetics, 25°C, read-out: pKD CAT (converted)

T1 sequence (Q03405 23-303): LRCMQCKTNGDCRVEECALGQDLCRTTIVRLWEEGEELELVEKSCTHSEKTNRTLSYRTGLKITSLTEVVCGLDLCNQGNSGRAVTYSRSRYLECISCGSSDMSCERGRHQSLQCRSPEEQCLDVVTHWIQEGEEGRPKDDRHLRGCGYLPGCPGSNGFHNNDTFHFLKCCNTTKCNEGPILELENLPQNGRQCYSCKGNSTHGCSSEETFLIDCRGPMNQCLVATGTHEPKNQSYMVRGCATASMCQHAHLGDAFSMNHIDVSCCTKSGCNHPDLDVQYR
T2 sequence (Q03405 23-335): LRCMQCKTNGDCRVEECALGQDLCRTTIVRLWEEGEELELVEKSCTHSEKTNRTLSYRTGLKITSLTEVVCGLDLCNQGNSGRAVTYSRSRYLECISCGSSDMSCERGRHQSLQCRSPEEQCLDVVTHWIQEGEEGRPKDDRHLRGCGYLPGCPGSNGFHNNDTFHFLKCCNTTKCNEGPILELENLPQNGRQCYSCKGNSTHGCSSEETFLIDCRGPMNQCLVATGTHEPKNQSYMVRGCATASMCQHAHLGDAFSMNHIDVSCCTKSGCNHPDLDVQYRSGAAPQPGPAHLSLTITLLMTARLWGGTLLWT

Kd (human uPAR (uPAR-Fc); [2]) [nM] | pIC50 CAT [1] | Molecule | other results
– | – | CCCCOC(=O)N[C@H]1CSSC[C@@H](C(N)=O)NC(=O)[C@H](CCC)NC(=O)[C@H]([C@@H](C)CC)NC(=O)[C@@H]2C[C@@H](O)CN2C(=O)[C@@H]2C[C@H](F)CN2C(=O)[C@H](Cc2ccccc2)NC(=O)[C@H](Cc2ccc(O)c(O)c2)NC(=O)[C@H](CCCCNC(=O)CCC(=O)NCCCOCCOCCOCCCNC(=O)c2ccc(-c3c4ccc(=N)c(S(=O)(=O)O)c-4oc4c(S(=O)(=O)O)c(N)ccc34)c(C(=O)O)c2)NC(=O)[C@H]([C@@H](C)O)NC1=O [UPAR-479, Butoc-[Cys-Thr-Lys(AF488-Ttds)-Dopa-Phe-4Cfp-Hyp-Ile-Nva-Cys]-NH2] (Butoxycarbonyl-CTK([Suc-X12])[Dopa]F[Pro(cis-4-F)][Hyp]I[Nva]C-NH2; disulfide 1-10) | Kd (human uPAR (uPAR-Fc)): < 1.58 nM
< 1.58 | – | CCC[C@@H]1NC(=O)[C@H]([C@@H](C)CC)NC(=O)[C@@H]2C[C@@H](O)CN2C(=O)[C@@H]2CCCN2C(=O)[C@H](Cc2ccccc2)NC(=O)[C@H](Cc2ccc(O)cc2)NC(=O)[C@H](CCC(N)=O)NC(=O)[C@H](CCCNC(=N)N)NC(=O)[C@@H](NC(=O)[C@@H](NC(C)=O)c2ccccc2)CSSC[C@@H](C(N)=O)NC1=O [UPAR-486, Ac-Phg-[Cys-Arg-Gln-Tyr-Phe-Pro-Hyp-Ile-Nva-Cys]-NH2] (Ac-[Phg]CRQYFP[Hyp]I[Nva]C-NH2; disulfide 2-11) | –
1.58 to 10 | – | CCC[C@@H]1NC(=O)[C@H]([C@@H](C)CC)NC(=O)[C@@H]2C[C@@H](O)CN2C(=O)[C@@H]2CCCN2C(=O)[C@H](Cc2ccccc2)NC(=O)[C@H](Cc2ccc(O)cc2)NC(=O)[C@H](CCC(N)=O)NC(=O)[C@H](CCCNC(=N)N)NC(=O)[C@@H](NC(=O)[C@H](CC(C)C)N(C)C)CSSC[C@@H](C(N)=O)NC1=O [UPAR-487, Me-Nml-[Cys-Arg-Gln-Tyr-Phe-Pro-Hyp-Ile-Nva-Cys]-NH2] (X10-CRQYFP[Hyp]I[Nva]C-NH2; disulfide 1-10) | –
< 1.58 | – | CCC[C@@H]1NC(=O)[C@H]([C@@H](C)CC)NC(=O)[C@@H]2C[C@@H](O)CN2C(=O)[C@@H]2CCCN2C(=O)[C@H](Cc2ccccc2)NC(=O)[C@H](Cc2ccc(O)cc2)NC(=O)[C@H](CCC(N)=O)NC(=O)[C@H](CCCNC(=N)N)NC(=O)[C@@H](NC(=O)[C@H](Cc2ccccc2)NC(C)=O)CSSC[C@@H](C(N)=O)NC1=O [UPAR-488, Ac-Phe-[Cys-Arg-Gln-Tyr-Phe-Pro-Hyp-Ile-Nva-Cys]-NH2] (Ac-FCRQYFP[Hyp]I[Nva]C-NH2; disulfide 2-11) | –
– | A (pIC50 values ≥8.0) | LuDOTA-Ahx-Leu-[Cys-Arg-Gln-Tyr-Phe-Pro-ala-Ile-Leu-Cys]-NH2 ({DOTA(Lu)}-[Ahx]LCRQYFP[dA]ILC-NH2; disulfide 3-12; not fully specified; printed as LuDOTA-Ahx-Leu-[Cys-Arg-Gln-Tyr-Phe-Pro-ala-Ile-Leu-Cys]-NH₂; also: Lu(III) complexed by DOTA) [UPAR-170] | –
– | A (pIC50 values ≥8.0) | Pent-[Cys-Cit-Lys(LuDOTA)-Tyr-Phe-Pro-Nmg-Ile-Nva-Cys]-NH2 (Pentanoyl-C[Cit]K(DOTA(Lu))YFP[Sar]I[Nva]C-NH2; disulfide 1-10; not fully specified; also: Lu(III) complexed by DOTA) [UPAR-348] | –
